Experimental findings from ChEMBL document CHEMBL4007425, “Drug Repurposing of Histone Deacetylase Inhibitors That Alleviate Neutrophilic Inflammation in Acute Lung Injury and Idiopathic Pulmonary Fibrosis via Inhibiting Leukotriene A4 Hydrolase and Blocking LTB4 Biosynthesis” (J Med Chem, 2017) are described below.

The structures appear in SMILES notation. Calls of active or inactive are those of the source. The calls are words filed in the database; no cut-off is given here.

Data set [1] has as its system Mus musculus. The data set is described as follows: Anti-inflammatory activity in LPS-induced C57BL/6 mouse model of acute lung injury assessed as reduction in pathological changes at 10 to 50 mg/kg, ip pretreated for 1 hr followed LPS challenge measured after 24 hrs by hematoxylin and eosin staining based microscopy. It is filed as functional, organism-based.
The subject of data set [2] is Mus musculus. The data set is described as follows: Anti-inflammatory activity in LPS-induced C57BL/6 mouse model of acute lung injury assessed as reduction in protein concentration in BALF at 10 to 50 mg/kg, ip pretreated for 1 hr followed LPS challenge measured after 24 hrs. It counts as functional, organism-based.
In data set [3] the test system is Mus musculus. The data set is described as follows: Anti-inflammatory activity in LPS-induced C57BL/6 mouse model of acute lung injury assessed as reduction in TNFalpha level pretreated intraperitoneally for 1 hr followed LPS challenge after 24 hrs by ELISA. It counts as functional. A general note: In an ELISA, binding on a coated surface is turned into a signal by an enzyme label.

Data set [4] deals with Plasma. The data set is described as follows: Plasma concentration in human. It counts as ADME, cell-free.
Data set [5] deals with Mus musculus. The data set is described as follows: Anti-inflammatory activity in BLM-induced C57BL/6 mouse model of acute lung neutrophilic inflammation assessed as reduction in macrophage number in BALF at 25 and 50 mg/kg, ip qd for 7 days post BLM challenge measured on day 7. It is filed as functional, organism-based.
In data set [6] the test system is Mus musculus. The data set is described as follows: Anti-inflammatory activity in BLM-induced C57BL/6 mouse model of acute lung neutrophilic inflammation assessed as MPO activity at 50 mg/kg, ip qd for 7 days post BLM challenge measured on day 7 (reference value: 0.98 U/g). It counts as functional.
Data set [7] has as its system Mus musculus. The data set is described as follows: Anti-inflammatory activity in BLM-induced C57BL/6 mouse model of acute lung neutrophilic inflammation assessed as reduction neutrophil count at 25 mg/kg, ip qd for 7 days post BLM challenge measured on day 7. It is filed as functional, organism-based.
In data set [8] the test system is Mus musculus. The data set is described as follows: Protection against BLM-induced lung fibrosis in C57BL/6 mouse assessed as TGF-beta1 level at 50 mg/kg, ip qd for 7 days post BLM challenge measured on day 14 by ELISA (reference value: 99.30 pg/ml). It is filed as functional.
In data set [9] the test system is Mus musculus. The data set is described as follows: Anti-inflammatory activity in BLM-induced C57BL/6 mouse model of acute lung neutrophilic inflammation assessed as reduction in number of lymphocytes in BALF at 25 and 50 mg/kg, ip qd for 7 days post BLM challenge measured on day 7. It counts as functional, organism-based.
Data set [10] has as its system Mus musculus. The data set is described as follows: Anti-inflammatory activity in BLM-induced C57BL/6 mouse model of acute lung neutrophilic inflammation assessed as reduction in total cell number in BALF at 10 and 25 mg/kg, ip qd for 7 days post BLM challenge measured on day 7. It counts as functional, organism-based.
For data set [11], the system named is Mus musculus. The data set is described as follows: Anti-inflammatory activity in BLM-induced C57BL/6 mouse model of acute lung neutrophilic inflammation assessed as protein concentration in BALF at 25 mg/kg, ip qd for 7 days post BLM challenge measured on day 7 (reference value: 2.39 mg/ml). It counts as functional.
Data set [12] has as its system Mus musculus. The data set is described as follows: Protection against BLM-induced lung fibrosis in C57BL/6 mouse assessed as reduction in deposition of collagen fibers at 10 and 25 mg/kg, ip qd for 7 days post BLM challenge measured on day 7 by Massons trichrome staining based method. It counts as functional, organism-based.
The test system of data set [13] is Mus musculus. The data set is described as follows: Protection against BLM-induced lung fibrosis in C57BL/6 mouse assessed as TGF-beta1 level at 10 and 25 mg/kg, ip qd for 7 days post BLM challenge measured on day 14 by qRT-PCR method. It counts as functional, organism-based. (In general: Quantitative PCR measures a nucleic acid by following its amplification.)

Consider `O=C(CCCCCCC(=O)Nc1ccccc1)NO` [VORINOSTAT], for which the result in data set [1], in data set [2], in data set [5], in data set [7] and in data set [9] was Active. The Activity entry in data set [3] was “Dose-dependent effect”; in data set [6] it was 0.67 U/g; in [8] it was 49.74 pg/mL. For the same compound, in data set [4], the concentration lay in the range of 0.01 to 6 µM.
Take `CN(C)c1ccc(C(=O)NCCCCCCC(=O)NO)cc1`: the result in data set [10], in [12] and in data set [13] was Active. Moreover, the Activity in data set [11] is 1.92 mg/mL.
